# In US20230172946A1, “In-situ Gel Forming Ophthalmic Formulations Containing Difluprednate” (IVIEW Therapeutics, Inc., priority 2019, published 2023):
# What was measured:
# [1] = Solubility of difluprednate with different surfactants/solubilizers; format: physicochemical
# Experimental: To improve the solubility of difluprednate, different surfactants/solubilizers were investigated to discover suitable solubilizers. Different surfactants/solubilizers such as Poloxamer 188, Poloxamer 407, polysorbate 80, PEG 40 Caster Oil, PEG 60 Caster Oil, PEG 40 Hydrogenated Castor Oil, Polyoxyl 40 Stearate and Soluplus was dissolved in water with different concentrations. Difluprednate was added into the surfactant solutions with the final difluprednate concentration of 0.05%. The solubility of difluprednate was measured. […] Soluplus is a polyethylene glycol, polyvinyl acetate and polyvinylcaprolactame-based graft copolymer (PVAc-PVCap-PEG). It can form nanomicelles in water or other aqueous solutions, and solubilize poorly soluble difluprednate.
# [2] = cited from earlier work
structure (smiles),measurement,setting,value
CCCC(=O)O[C@]1(C(=O)COC(C)=O)CC[C@H]2[C@@H]3C[C@H](F)C4=CC(=O)C=C[C@]4(C)[C@@]3(F)[C@@H](O)C[C@@]21C [Difluprednate],solubility of difluprednate,[1]; 5% Polyoxyethylene Castor Oil (RL-40),> 98%
same,Solubility %,"[1]; Benzyl Benzoate 2% in water, difluprednate 0.05%",0.37%
same,Solubility %,"[1]; Glyceryl Tricaprylate 0.2% in water, difluprednate 0.05%",0.84%
same,Solubility %,"[1]; Hypromellose 0.5% in water, difluprednate 0.05%",17.6%
same,Solubility %,"[1]; Poloxamer188 0.1% in water, difluprednate 0.05%",3.59%
same,Solubility %,"[1]; Poloxamer 407 0.2% in water, difluprednate 0.05%",2.20%
same,Solubility %,"[1]; Polyoxyethylene (23) Cetyl Ether 0.2% in water, difluprednate 0.05%",7.87%
same,Solubility %,"[1]; Polyoxyethylene (23) Cetyl Ether 0.45% in water, difluprednate 0.05%",15.41%
same,Solubility %,"[1]; Polyoxyethylene (23) Cetyl Ether 1.0% in water, difluprednate 0.05%",33.70%
same,Solubility %,"[1]; Polyoxyethylene (40) Monostearate 0.5% in water, difluprednate 0.05%",42.0%
same,Solubility %,"[1]; Polyoxyethylene (40) Stearate 7.0% in water, difluprednate 0.05%",5.1%
same,Solubility %,"[1]; Polyoxyethylene (60) Castor Oil 5.0% in water, difluprednate 0.05%",95.3%
same,solubility of difluprednate,"[1]; Polyoxyethylene (60) Castor Oil, at least 4 or 5% needed",> 95%
same,Solubility %,"[1]; Polyoxyethylene Castor Oil (EL) 5.0% in water, difluprednate 0.05%",93.5%
same,Solubility %,"[1]; Polyoxyethylene Castor Oil (EL-35) 5.0% in water, difluprednate 0.05% (second entry, r27)",96.3%
same,solubility of difluprednate,"[1]; Polyoxyethylene Castor Oil (EL-35), at least 4 or 5% needed",> 95%
same,Solubility %,"[1]; Polyoxyethylene Castor Oil (EL-40) 5.0% in water, difluprednate 0.05%",>98.0%
same,Solubility %,"[1]; Polyoxyethylene Hydrogenated Castor Oil (RH-40) 0.53% in water, difluprednate 0.05%",9.7%
same,Solubility %,"[1]; Polyoxyethylene Hydrogenated Castor Oil (RH-40) 1.0% in water, difluprednate 0.05%",18.6%
same,Solubility %,"[1]; Polyoxyethylene Hydrogenated Castor Oil (RH-40) 2.0% in water, difluprednate 0.05%",50.0%
same,Solubility %,"[1]; Polyoxyethylene Hydrogenated Castor Oil (RH-40) 3.0% in water, difluprednate 0.05%",73.1%
same,Solubility %,"[1]; Polyoxyethylene Hydrogenated Castor Oil (RH-40) 4.0% in water, difluprednate 0.05%",88.1%
same,Solubility %,"[1]; Polyoxyethylene Hydrogenated Castor Oil (RH-40) 5.0% in water, difluprednate 0.05%",99.5%
same,Solubility %,"[1]; Polyoxyethylene castor oil (EL-35) 5.0% in water, difluprednate 0.05% (first entry, r11)",82.9%
same,Solubility %,"[1]; Polyoxyl 20 Cetostearyl Ether 1.0% in water, difluprednate 0.05%",37.2%
same,Solubility %,"[1]; Polyoxyl 20 Cetostearyl Ether 2.0% in water, difluprednate 0.05%",74.7%
same,Solubility %,"[1]; Polyoxyl 20 Cetostearyl Ether 3.0% in water, difluprednate 0.05%",79.9%
same,Solubility %,"[1]; Polyoxyl 20 Cetostearyl Ether 4.0% in water, difluprednate 0.05%",96.9%
same,Solubility %,"[1]; Polyoxyl 20 Cetostearyl Ether 5.0% in water, difluprednate 0.05%",96.9%
same,Solubility %,"[1]; Polysorbate 80 0.05% in water, difluprednate 0.05%",1.75%
same,Solubility %,"[1]; Soluplus 0.9% in water, difluprednate 0.05%",101.9%
same,Solubility %,"[1]; Soluplus 1.2% in water, difluprednate 0.05%",102.1%
same,Solubility %,"[1]; Soluplus 1.5% in water, difluprednate 0.05%",102.1%
same,Solubility %,"[1]; Sucrose Fatty Acid Ester 0.2% in water, difluprednate 0.05%",2.01%
same,Solubility %,"[1]; Sucrose Fatty Acid Ester 1.0% in water, difluprednate 0.05%",8.36%
same,Solubility %,"[1]; Vitamin E Polyethylene Glycol Succinate 0.5% in water, difluprednate 0.05%",25.3%
same,solubility in water,[2],practically insoluble in water
